Laboratory results reported in US20220048893A1, “Compounds for Treating Neurodegenerative Diseases and Cancers” (Hongyi & Associates LLC, priority 2019, published 2022).

Assay: In vivo PK study, oral, plasma and brain
Set-up: species or system Sprague Dawley rats; AUC(0-t) / AUC(0-inf): concentration or dose not given beside the values
Conditions: for brain permeability compared to Nilotinib and Imatinib: in vivo PK studies; for Kp / AUC(0-inf) / AUC(0-t) / Cmax / Tmax / half-life: rat, oral, Sprague Dawley rats; for Kp: brain and plasma, read-out: AUC(0-t) Brain/ AUC(0-t) plasma
Experimental: In the PK profiling study, Compounds 1 and 2 were administered orally to three Sprague Dawley rats. The animals were fasted overnight before drug administration. The food supply were resumed 4 hrs post dose. Blood samples were collected at 8 time points after dose: 0.25 h, 0.5 h, 1 h, 2 h, 4 h, 6 h, 8 h and 24 h. There are three samples for each time point. Brain tissues were collected after 24 hour blood sample collection. Drug concentrations in blood and brain were analyzed by LC-MS/MS. The analytical results were confirmed using quality control samples for intra-assay variation. The accuracy of >66.7% of the quality control samples should be between 80-120% of the known values. Standard set of parameters including area under the curve (AUC(0-t) and AUC(0-∞)), elimination half-life (T1/2), maximum plasma concentration (Cmax), time to reach maximum plasma concentration (Tmax) were calculated using noncompartmental analysis modules in FDA certified pharmacokinetic program Phoenix WinNonlin 7.0 (Pharsight, USA). The ratio of brain to plasma concentration were calculated by the concentration in brain tissue versus the concentration in plasma.

Row | Compound | brain permeability compared to Nilotinib and Imatinib | Kp | AUC(0-inf) (Brain) [ng·h/mL] | AUC(0-t) (Brain) [ng·h/mL] | Cmax (Brain) [ng/mL] | Tmax (Brain) [h] | half-life (Brain) [h] | AUC(0-inf) (Plasma) [ng·h/mL] | AUC(0-t) (Plasma) [ng·h/mL] | Cmax (Plasma) [ng/mL] | Tmax (Plasma) [h] | half-life (Plasma) [h]
1 | Cc1ccc(C(=O)Nc2ccc(C3CCN(C)CC3)cc2)cc1Nc1ccnc(-c2cccnc2)n1 [Compound 2, 4-methyl-N-(4-(1-methylpiperidin-4-yl)phenyl)-3-((2-(pyridin-3-yl)pyrimidin-4-yl)amino)benzamide] | much improved brain permeability | 0.142 | 25600 | 13100 | 796 | 6 | 20.2 | 219000 | 92000 | 5380 | 6 | 26.8
2 | Cc1ccc(C(=O)Nc2ccc(CC(C)N(C)C)cc2)cc1Nc1ccnc(-c2cccnc2)n1 (stereo not drawn) [Compound 1, N-(4-(2-(dimethylamino)propyl)phenyl)-4-methyl-3-((2-(pyridin-3-yl)pyrimidin-4-yl)amino)benzamide] | much improved brain permeability | 0.121 | 8740 | 7720 | 557 | 6 | 7.1 | 65400 | 64000 | 6680 | 4 | 3.98
